Values quoted from earlier work, collected in patent US20110312981A1, “PREDICTIVE MARKER FOR EGFR INHIBITOR TREATMENT” (priority 2007, published 2011).
Blank lines part the entries; values can stand above or below the compound they belong to.

Experiments:
patients with NSCLC = conditions: second line after cisplatin-based first-line regimens failed; ECOG 0, 1 or 2; versus best supportive care
NSCLC = conditions: second line therapy of NSCLC
[1] = test system: NSCLC patients for whom standard therapy for advanced disease has failed; conditions: single agent, versus placebo, BR.21
[2] = patients with cancer receiving the 150 mg/day dose

Compound: CC(=O)O[C@@]12CO[C@@H]1C[C@H](O)[C@@]1(C)C(=O)[C@H](O)C3=C(C)[C@@H](OC(=O)[C@H](O)[C@@H](NC(=O)OC(C)(C)C)c4ccccc4)C[C@@](O)([C@@H](OC(=O)c4ccccc4)[C@H]21)C3(C)C [docetaxel]
- survival (patients with NSCLC): improved survival

Compound: Nc1nc2[nH]cc(CCc3ccc(C(=O)N[C@@H](CCC(=O)O)C(=O)O)cc3)c2c(=O)[nH]1 [pemetrexed]
- efficacy compared with docetaxel (NSCLC): clinically equivalent efficacy
- side effects compared with docetaxel (NSCLC): significantly fewer side effects

- drug levels in plasma [2]: > 500 ng/mL
Compound: C#Cc1cccc(Nc2ncnc3cc(OCCOC)c(OCCOC)cc23)c1 [Tarceva, erlotinib]
- survival [1]: significantly prolongs and improves the survival
